Measured values taken from PubChem BioAssay AID651650 (Sanford-Burnham Center for Chemical Genomics, 2012).
pIC50: −log10 of the molar value. Active and inactive are the calls of the source.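 The calls were made as follows: active = mean IC50 below 20 µM in each of the two panels, so potent in both; inactive = the rest.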

Biological target: Neuropilin-1 (Homo sapiens) (UniProt O14786)
Experiment: blockers of CendR peptide binding to NRP-1 – biochemical, FP and AlphaScreen panel, dose response (AID 651650)
Settings: NRP-1 b1b2 / RPARPAR peptide binding, FP or AlphaScreen
[1] = AlphaScreen, run 1, individual panel run IC50
[2] = FP, run 1, individual panel run IC50
[3] = FP, run 2, individual panel run IC50

Sequence of Neuropilin-1 (Homo sapiens) (O14786 whole entry, looked up): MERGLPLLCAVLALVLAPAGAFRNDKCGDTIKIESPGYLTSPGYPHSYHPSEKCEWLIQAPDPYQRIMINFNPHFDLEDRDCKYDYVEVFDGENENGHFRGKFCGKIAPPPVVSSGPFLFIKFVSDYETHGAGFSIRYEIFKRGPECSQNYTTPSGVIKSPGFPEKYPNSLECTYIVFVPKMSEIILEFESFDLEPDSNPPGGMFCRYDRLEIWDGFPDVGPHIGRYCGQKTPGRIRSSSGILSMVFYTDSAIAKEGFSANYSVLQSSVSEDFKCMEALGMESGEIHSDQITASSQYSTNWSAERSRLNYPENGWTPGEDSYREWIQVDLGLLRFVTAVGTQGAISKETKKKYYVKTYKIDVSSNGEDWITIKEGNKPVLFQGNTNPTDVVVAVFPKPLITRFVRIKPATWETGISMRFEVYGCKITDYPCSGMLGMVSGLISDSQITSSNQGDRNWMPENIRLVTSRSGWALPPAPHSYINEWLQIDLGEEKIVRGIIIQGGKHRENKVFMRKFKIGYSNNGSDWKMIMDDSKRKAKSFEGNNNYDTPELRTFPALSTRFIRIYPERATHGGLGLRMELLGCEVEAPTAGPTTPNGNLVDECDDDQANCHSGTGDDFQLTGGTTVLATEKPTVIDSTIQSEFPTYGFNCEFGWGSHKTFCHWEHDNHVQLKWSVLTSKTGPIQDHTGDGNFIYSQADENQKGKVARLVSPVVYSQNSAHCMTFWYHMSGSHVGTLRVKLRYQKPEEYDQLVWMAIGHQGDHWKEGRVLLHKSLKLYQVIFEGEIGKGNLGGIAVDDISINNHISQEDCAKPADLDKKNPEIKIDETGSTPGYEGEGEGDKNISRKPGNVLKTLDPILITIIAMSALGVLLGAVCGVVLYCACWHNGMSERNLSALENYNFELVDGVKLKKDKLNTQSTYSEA

| SMILES | IC50 (AlphaScreen, mean of runs) | pIC50 [1] | IC50 (FP, mean of runs) | pIC50 [2] | pIC50 [3] | pIC50 (AlphaScreen, mean of runs) |
| --- | --- | --- | --- | --- | --- | --- |
| COc1ccc(-c2cc(C)no2)cc1S(=O)(=O)NCc1cccc(C)c1 | > 100 µM (inactive) | < 4.00 | > 95 µM (inactive) | < 4.02 | < 4.02 |  |
| Cc1ccc(NNS(=O)(=O)c2ccc(C)cc2)cc1 | > 100 µM (inactive) | < 4.00 | > 95 µM (inactive) | < 4.02 | < 4.02 |  |
| Cc1onc(-c2ccccc2)c1C(=O)N1CCCC1 | > 100 µM (inactive) | < 4.00 | > 95 µM (inactive) | < 4.02 | < 4.02 |  |
| CCc1onc(C)c1C(=O)Nc1cc(C)ccc1OC |  | 4.80 | > 95 µM (inactive) | < 4.02 | < 4.02 | 4.80 |
| CCN(CC(=O)NCc1cccs1)S(=O)(=O)c1ccc(C(C)C)cc1 | > 100 µM (inactive) | < 4.00 | > 95 µM (inactive) | < 4.02 | < 4.02 |  |
| Cc1cccc(NC(=O)c2ccc(OCc3c(C)noc3C)cc2)c1 |  | 4.75 | > 95 µM (inactive) | < 4.02 | < 4.02 | 4.75 |
| COc1ccncc1-c1csc(C(O)c2ccccc2)n1 (stereo not given) | > 100 µM (inactive) | < 4.00 | > 95 µM (inactive) | < 4.02 | < 4.02 |  |
| NCCCC[C@H]1CN=C(N)N1CCC12CC3CC(CC(C3)C1)C2 | inactive | 4.30 | > 95 µM (inactive) | < 4.02 | < 4.02 |  |
| N#CC(C#N)=Cc1cc2ccccc2nc1N1CCCCC1 | > 100 µM (inactive) | < 4.00 | > 95 µM (inactive) | < 4.02 | < 4.02 |  |
| CCn1c(=O)c(C(=O)NCCNCCO)c(O)c2ccccc21 | > 100 µM (inactive) | < 4.00 | > 95 µM (inactive) | < 4.02 | < 4.02 |  |
| Cc1occc1C(=O)N1N=C(C2CC2)CC1(O)C(F)(F)F (stereo not given) | > 100 µM (inactive) | < 4.00 | > 95 µM (inactive) | < 4.02 | < 4.02 |  |
| C=CCn1c(SCC(=O)Nc2ncc(Cc3ccc(Br)cc3)s2)nnc1-c1ccncc1 | > 100 µM (inactive) | < 4.00 | > 95 µM (inactive) | < 4.02 | < 4.02 |  |
| CC(=O)NC(c1cccc(F)c1)c1nc(-c2cccc(C(F)(F)F)c2)cs1 (stereo not given) | > 100 µM (inactive) | < 4.00 | > 95 µM (inactive) | < 4.02 | < 4.02 |  |
| COc1ccccc1N1CCN(C(=O)C2c3ccccc3Oc3ccccc32)CC1 | > 100 µM (inactive) | < 4.00 | > 95 µM (inactive) | < 4.02 | < 4.02 |  |
| COc1ccc([C@H]2/C=C\CN(C(=O)C3CC3)[C@@H](C)C(=O)N2Cc2ccc(F)cc2)cc1 | > 100 µM (inactive) | < 4.00 | > 95 µM (inactive) | < 4.02 | < 4.02 |  |
| COC(=O)CCCC1=CC2=CC(=O)C(C)(OC(=O)c3cccs3)C(=O)C2=CN1CCCOC(C)C (stereo not given) |  | 5.25 | > 95 µM (inactive) | < 4.02 | < 4.02 | 5.25 |
| COc1ccc(C(C(=O)NC(C)(C)C)N(C(=O)CCC(=O)Nc2cc(C)on2)c2c(C)cccc2C)cc1 (stereo not given) | > 100 µM (inactive) | < 4.00 | > 95 µM (inactive) | < 4.02 | < 4.02 |  |
| Cc1ccc(C2(O)CCN3CCCCC32)cc1 (stereo not given) | > 100 µM (inactive) | < 4.00 | > 95 µM (inactive) | < 4.02 | < 4.02 |  |
| COc1ccc(C2CC(O)(c3ccccc3)Oc3cc(OC)ccc32)cc1 (stereo not given) | > 100 µM (inactive) | < 4.00 | > 95 µM (inactive) | < 4.02 | < 4.02 |  |
| Cc1cc2cc(CNC(=O)c3ccc(S(=O)(=O)N4CCOCC4)cc3)ccc2n1C | > 100 µM (inactive) | < 4.00 | > 95 µM (inactive) | < 4.02 | < 4.02 |  |
| Cc1c(CC(=O)O)c(=O)oc2cc(OCc3ccc(F)cc3Cl)ccc12 | > 100 µM (inactive) | < 4.00 | > 95 µM (inactive) | < 4.02 | < 4.02 |  |
| OCC1OC(n2cnc3c(/C=C(\O)c4ccccc4)ncnc32)C(O)C1O (stereo not given) | > 100 µM (inactive) | < 4.00 | > 95 µM (inactive) | < 4.02 | < 4.02 |  |
| O=C1CCN(Cc2ccccc2)S(=O)(=O)c2ccccc21 | > 100 µM (inactive) | < 4.00 | > 95 µM (inactive) | < 4.02 | < 4.02 |  |
